Measured values from patent US7601512B2, “Methods for identifying inhibitors of the 20S and 26S proteasome” (Bayer CropScience AG, priority 2002, dated 2009).
Values after ≈ are worked out from the molar mass of the structure shown. *1 amine or outer side, *2 acyl side, *3 side chain or, on linkers, in order; H or OH if unused. Where a SMILES comes first, the peptide text is derived from it. [ ]: non-standard residue; d: D form. The star is where a group is joined. AMC = Cc1cc(=O)oc2cc(N*)ccc12; Suc = O=C(CCC(=O)[*:2])[*:1]; Nva = CCC[C@H](N)C(=O)O; Cbz = O=C(OCc1ccccc1)*

Legend:
[1] = test system: Botrytis cinerea (BOTRCI); test: agar diffusion assay (fungicidal action, MIC); type: cell-based
[2] = test system: Fusarium culmorum (FUSACU); test: agar diffusion assay (fungicidal action, MIC); type: cell-based
[3] = test system: Pseudocercosporella herpotrichoides (PSDCHW); test: agar diffusion assay (fungicidal action, MIC); type: cell-based; settings: PSDCHR
[4] = test system: Pyricularia orycae (PYRIOR); test: microbe, parasite or virus in culture; type: cell-based
[5] = test system: Rhizoctonia solani (RHIZSO); test: agar diffusion assay (fungicidal action, MIC); type: cell-based
Ustilago maydis (USTIMA) = test: agar diffusion assay (fungicidal action, MIC); type: cell-based
20S proteasome [6] = test: 20S proteasome activity/inhibition assay with Suc-LLVY-AMC (AMC fluorescence); type: biochemical, yeast; Ustilago maydis; settings: 40 nM MG-132, FIGS. 1 and 2
Description: FIG. 1 is an activity assay for the 20S proteasome from yeast. The substrate used for the chymotryptic activity was Suc-LLVY-AMC (SEQ. ID. NO. 1). Liberation of AMC was determined fluorometrically as a function of time. The proteasome activity was determined in a 1:100 dilution of a yeast extract in the presence of 40 nM MG132 and in the absence of MG-132. As a negative control, the reaction was carried out without enzyme (buffer).
FIG. 2 is an activity assay for the 20S proteasome from Ustilago maydis. The substrate used for the chymotryptic activity was Suc-LLVY-AMC (SEQ. ID. NO. 1). Liberation of AMC was determined fluorometrically as a function of time. The proteasome activity was determined in a 1:100 and 1:20 dilution of a U. maydis preparation. […]
The proteolytic activity measurable in this way can be influenced by an inhibitor such as, for example, MG-132, resulting in a lower relative fluorescence being observed (FIGS. 1 and 2). […]
The activity and inhibition assay which makes use of the known inhibitor MG-132 from Calbiochem and which is intended to check the usability of the method of the invention was carried out in 384-well MTPs (microtitre plates with 384 wells). […] The preliminary measurement (fluorescence) was carried out at 360/465 nm (35 nm bandwidth). […] The fluorescence was measured again at 360/465 nm (35 nm bandwidth).

S. cerevisiae = settings: 30° C., Lee and Goldberg (1998); cited from earlier work
[7] = cited from earlier work
20S proteasome [8] = settings: read-out: KM for Suc-LLVY-AMC; approx. 70 ng proteasomes per reaction, Lineweaver-Burke
Description: A constant amount of proteasomes (approx. 70 ng per reaction) was incubated with increasing amounts of substrate and the increase in fluorescence was then determined over a period of 5 minutes. The slopes of the curve (dotted line) were determined by calculating trend lines.

Aprotinin [Example 2]
MIC (minimum inhibitory concentration) [1]: 339.3 ppm | MIC (minimum inhibitory concentration) [2]: >1000 ppm | MIC (minimum inhibitory concentration) [3]: >1000 ppm | MIC (minimum inhibitory concentration) ([4]; PYRIOR, agar diffusion assay): 18.0 ppm | MIC (minimum inhibitory concentration) [5]: >1000 ppm | MIC (minimum inhibitory concentration) (Ustilago maydis (USTIMA)): 750 ppm

CCC[C@@H](C=O)NC(=O)[C@H](CC(C)C)NC(=O)[C@H](CC(C)C)NC(=O)OCc1ccccc1 [Example 1, Carbobenzoxy-L-leucyl-L-leucyl-L-norvalinal] (Cbz-Leu-Leu-[Nva]-aldehyde)
MIC ([1]; Botrytis cinerea, read-out: MIC (minimum inhibitory concentration)): 58.6 µg/mL (≈ 127 µM) | MIC ([2]; Fusarium culmorum, FUSACU, agar diffusion assay, read-out: MIC (minimum inhibitory concentration)): > 1000 µg/mL | MIC ([3]; Oculimacula yallundae, read-out: MIC (minimum inhibitory concentration)): > 1000 µg/mL | MIC ([4]; Pyricularia, read-out: MIC (minimum inhibitory concentration)): 2 µg/mL (≈ 4.33 µM) | MIC ([5]; Rhizoctonia solani, read-out: MIC (minimum inhibitory concentration)): > 1000 µg/mL | MIC (Ustilago maydis (USTIMA); Mycosarcoma maydis, read-out: MIC (minimum inhibitory concentration)): 750 µg/mL (≈ 1620 µM)

CC(C)C[C@@H](C=O)NC(=O)[C@H](CC(C)C)NC(=O)[C@H](CC(C)C)NC(=O)OCc1ccccc1 [MG-132, Z-Leu-Leu-Leu-CHO] (Cbz-Leu-Leu-Leu-aldehyde)
relative fluorescence (proteasome activity) in presence of inhibitor (20S proteasome [6]): markedly reduces the relative fluorescence | effect on the growth rate of yeast cells (S. cerevisiae): only a minimum effect, if any

Suc-Leu-Leu-Val-Tyr-AMC (Suc-LLVY-{AMC}; SMILES Cc1cc(=O)oc2cc(NC(=O)[C@H](Cc3ccc(O)cc3)NC(=O)[C@@H](NC(=O)[C@H](CC(C)C)NC(=O)[C@H](CC(C)C)NC(=O)CCC(=O)O)C(C)C)ccc12) [Suc-LLVY-AMC]
solubility in DMSO [7]: 50 mg/mL | Km (20S proteasome [8]): 5 µM
